Entries after “also recorded” stand apart in the source; their conditions may differ.
Legend:
BCKD = BCKD activity in mouse cardiac tissue; format: in vivo; conditions: BT2 vs vehicle
Experimental: PP2Cm germ-line knockout (PP2Cm-KO) mice were generated as previously described (Lu et al. (2009), supra). PP2Cm KO mice were backcrossed for more than 8 generations into a C57BL/6 background. Wild type C57BL/6 mice and PP2Cm KO mice were housed at 22° C. with a 12-hour light, 12-hour dark cycle with free access to water and standard chow. Studies were performed with male mice. Human cohorts of dilated cardiomyopathy and controls were obtained from Columbia and Duke with Institutional Review Board approval. All animal procedures were carried out in accordance with the guidelines and protocols approved by the University of California at Los Angeles Institutional Animal Care and Use Committee (IACUC). Transaortic constriction (TAC) and cardiac echocardiography were performed as reported earlier 17 on mice from different genotypes between 14 and 16 weeks of age. […] Measurements of BCKD activity in mouse cardiac tissue and plasma BCKA/BCAA concentrations were performed as previously described (Tso et al. (2014), supra).

BCKD subunit E1α = assay: Immunoblot of phosphorylated BCKD subunit E1α in heart of BT2-treated mice; format: in vivo, mouse; conditions: wild-type mice, BT2 40 mg/kg/d oral gavage vs vehicle
Experimental: PP2Cm germ-line knockout (PP2Cm-KO) mice were generated as previously described (Lu et al. (2009), supra). PP2Cm KO mice were backcrossed for more than 8 generations into a C57BL/6 background. Wild type C57BL/6 mice and PP2Cm KO mice were housed at 22° C. with a 12-hour light, 12-hour dark cycle with free access to water and standard chow. Studies were performed with male mice. Human cohorts of dilated cardiomyopathy and controls were obtained from Columbia and Duke with Institutional Review Board approval. All animal procedures were carried out in accordance with the guidelines and protocols approved by the University of California at Los Angeles Institutional Animal Care and Use Committee (IACUC). Transaortic constriction (TAC) and cardiac echocardiography were performed as reported earlier 17 on mice from different genotypes between 14 and 16 weeks of age. […]
Proteins from heart tissue or cells were harvested in buffer (50 mM HEPES (pH7.4), 150 mM NaCl, 1% NP-40, 1 mM EDTA, 1 mM EGTA, 1 mM glycerophosphate, 2.5 mM sodium pyrophosphate, 1 mM Na3VO4, 20 mM NaF, 1 mM phenylmethylsulfonyl fluoride, 1 μg/mL of aprotinin, leupeptin, and pepstatin). […] Protein signals were detected using HRP conjugated secondary antibodies and enhanced chemiluminescence (ECL) western blotting detection regents (Pierce). […]

[1] = Cardiac BCAA and BCKA assay post-TAC; format: in vivo, mouse; conditions: post-TAC heart, BT2 6 weeks
Experimental: BCAA and BCKA concentration in mouse heart tissue were determined by mass spectrometer using the following transition s: KIC 203.1 to 161.1 (retention time: 2.91 min); KIV 189.145 to 119.2 (retention time 2.84 min); KMV 203.065 to 174.2 (retention time 2.99 min); [^13C] KIV 194.109 to 120.1 (retention time: 2.84 min). Val 174.1/72.1 (retention time 3.2 min), Leu 188.1/86.1 (retention time 5.9 min), Ile 188.2/86.1 (retention time 5.7 min).

ob/ob mice = assay: Glucose and insulin tolerance, plasma insulin, food intake, body weight in ob/ob mice treated with BT2; format: in vivo, mouse; conditions: BT2 40 mg/kg/day
Experimental: (§1) Animals were euthanized using carbon dioxide asphyxiation followed by cervical dislocation and then dissected. Blood was harvested by cardiac puncture and centrifuged to isolate plasma which was stored at −80° C. Acidified citrate dextrose was used as an anticoagulant. Immediately after blood collection, heart, liver, kidneys, and both hind leg quadriceps muscles were removed and snap frozen in liquid nitrogen.
Mice were fasted for 6 hours. For insulin tolerance test, mice were injected (intraperitoneal) with insulin (0.75 U/kg body weight). For glucose tolerance test, mice were injected intraperitoneally with D-glucose (2 g/kg body weight). Experiments were performed between 14:00 and 16:00. Blood was drawn 0, 15, 30, 60, and 120 min after insulin or glucose administration. Blood glucose concentrations were measured through tail bleeding before and at the times indicated after injection. Blood glucose was measured using a portable glucometer (Johnson&Johnson). Plasma insulin and TNFα concentrations were measured by Milliplex Multiplex Immunoassay Kits MMHMAG-44K-14 (Merck Millipore, Darmstadt, Germany).

[2] = Plasma BCAA/BCKA in ob/ob mice treated with BT2; format: in vivo, mouse; conditions: BT2 40 mg/kg/day
Experimental: as §1
The endogenous signal from blank plasma was subtracted from each point on the standard curve, and the data were plotted in GraphPad Prism. BCAA concentrations in treated samples were determined based on this standard curve.

[3] = test system: pressure-overloaded mouse heart; assay: Metabolic gene expression (quantitative PCR) in pressure-overloaded mouse heart; format: in vivo
Description: Total RNA was extracted from heart tissues using Trizol Reagent (Invitrogen) according to the manufacturer's instructions. Total RNA was reverse-transcribed into the first-strand cDNA using ProtoScript® II Reverse Transcriptase (New England BioLabs). Then, cDNA transcripts were quantified by the CFX Real-Time PCR System (BioRad). 18sRNA were used for normalization except where indicated. PCR primer information is available upon request.

[4] = Plasma BCKA/BCAA concentrations in wild-type and PP2Cm-KO mice; format: in vivo, mouse; conditions: BT2 vs vehicle
Experimental: PP2Cm germ-line knockout (PP2Cm-KO) mice were generated as previously described (Lu et al. (2009), supra). PP2Cm KO mice were backcrossed for more than 8 generations into a C57BL/6 background. Wild type C57BL/6 mice and PP2Cm KO mice were housed at 22° C. with a 12-hour light, 12-hour dark cycle with free access to water and standard chow. Studies were performed with male mice. Human cohorts of dilated cardiomyopathy and controls were obtained from Columbia and Duke with Institutional Review Board approval. […]
BCKA Measurements in mouse Plasma: The method published by Olson et al. (2013), supra was followed with modification. […] The samples were re-suspended in 50:50 MeOH:5 mM NH4 acetate and analyzed by LC-MS/MS using a Sciex 3200 Q-Trap coupled to a Shimadzu Prominence LC. An Agilent C18 XDB 5 micron packing column (50×4.6 mm) was used for chromatography with the following conditions: Buffer A: 5 mM NH4 acetate, Buffer B: methanol, 0-2.0 min 50% B, 2.0-2.5 min gradient to 100% B, 2.5-3.5 min 100% B, 3.5-3.6 min gradient to 50% B, 3.6-4.6 min 50% B. The derivatized keto acids were detected with the mass spectrometer in positive MRM (multiple reaction monitoring) mode using the following transitions: KIC 203.1 to 161.1 (retention time: 2.91 min); KIV 189.145 to 119.2 (retention time 2.84 min); KMV 203.065 to 174.2 (retention time 2.99 min); [^13C] […]

O=C(O)c1sc2cc(Cl)ccc2c1Cl [BT2, 3,6-dichlorobenzo[b]thiophene-2-carboxylic acid]
enhancement of cardiac BCKD activity (BCKD; PP2Cm-KO mice): ~9 fold | enhancement of cardiac BCKD activity (BCKD; wild-type mice): ~7 fold | phosphorylation of BCKD subunit E1α in heart (BCKD subunit E1α): significantly reduced | cardiac intra-tissue concentrations of BCAA and BCKA [1]: significant reduced | glucose tolerance (ob/ob mice): significantly improved | hyperinsulinemia (ob/ob mice): attenuation | insulin sensitivity (ob/ob mice): significantly improved | magnitudes of reductions in plasma BCKA concentrations (vs BCAA) [2]: far more pronounced | plasma BCAA levels [2]: significantly lowered | PDK4 mRNA level ([3]; BT2 treated mouse heart): trend of increase | gene expression related to glucose transport ([3]; BT2 treated mouse heart): unaffected | mRNA level of CD36 ([3]; BT2 treated mouse heart post-TAC): moderately increased | genes related to fatty acid β-oxidation (Acox1, Acadm) ([3]; BT2 treated mouse hearts): mild increase | mitochondrial DNA amount and PGC-1a mRNA levels ([3]; vehicle vs BT2, post-sham or post-TAC): unaffected | plasma BCAA level [4]: modest impact; also recorded: reduced | plasma BCKA level [4]: markedly reduced

Reference: US20210278391A1, “COMPOSITIONS AND METHODS FOR TREATING CARDIOVASCULAR AND METABOLIC CONDITIONS” (The Regents of the University of California, priority 2017, published 2021)
